Each structure is given as a SMILES string.

The subject of the series is live anesthetized rats. The settings on record: rat, in vivo.

With `CNCC(O)c1ccc(O)c(O)c1` (stereo not shown) [Adrenalin], the rhythm disturbances entry is reported as “induced rhythm disturbances”.

The record behind these values is US20140323414A1 (priority 2011, published 2014).
